According to patent US20250213572A1, “TYK2 INHIBITORS AND USES THEREOF” (Takeda Pharmaceutical Company Limited, priority 2022, published 2025):
In brackets after ≈: the same amount, converted by molar mass. Like-named read-outs stand apart in the source and are kept apart here.

Key:
[1] = system: 87 target panel of enzymes, ion channels, receptors; assay: 87 target panel of enzymes, ion channels, receptors; type: biochemical; details: @ 10,000 nM
[2] = Study 101: safety and tolerability of single and multiple ascending doses in healthy subjects
clinical = details: human, plasma, oral
[3] = system: adjuvant-induced arthritis; assay: Rat adjuvant-induced arthritis (AIA) efficacy model; details: administered daily for 20 days
Method: On day 0, the adjuvant was injected. On day 9, baseline ankle diameters were measured. On days 12-20, daily ankle diameter measurements were taken. On day 20, a final necroscopy and paw weight measure were taken.

PDE4D = PDE4D (Homo sapiens, UniProt Q08499); assay: PDE4D IC50; type: biochemical
[4] = human, in vivo
hepatocytes = assay: Hepatocyte predicted clearance (Hep Clpred), cyno; type: in vitro ADME; details: in vitro
[5] = system: moderate to severe plaque psoriasis; assay: Phase 2b study in plaque psoriasis (Example 4): efficacy; type: in vivo, human; details: for Achieving PASI 75 at Week 12, number of patients: mITT
From the text: Efficacy Analyses: The primary endpoint can be translated as a responder analysis, where a subject will be classified as responder if he or she achieves PASI-75 at Week 12. The comparison between groups for the primary endpoint will be done using a Cochran-Mantel-Haenszel (CMH), with prior treatment with biologics included as a stratification factor. The primary efficacy analysis will be performed on the intent-to-treat (ITT) analysis set, while the per-protocol (PP) analysis set will be used as a sensitivity analysis.
The secondary endpoints involving proportions of subjects will be analyzed using the same approach (CMH test) as described for the primary efficacy analysis, at each time point and based on the ITT analysis. The continuous secondary endpoints involving absolute change from baseline will be analyzed using a mixed effect model repeated measures method (MMRM) based on the ITT analysis set only. The model will include treatment, visit, treatment-by-visit interaction, and prior treatment with biologics as fixed effects, and baseline score as a covariate.

FaSSIF/FeSSIF solubility = type: physicochemical
[6] = Nonclinical oral absorption across species (summary); type: in vivo
[7] = Three placebo-controlled Phase I studies, pooled summary; details: across the 3 Phase I studies
[8] = human, in vivo; remark: listed apart in the source
[9] = In vivo pharmacokinetics, rat; details: plasma

PDE4D, sequence (Q08499 whole entry, species assumed): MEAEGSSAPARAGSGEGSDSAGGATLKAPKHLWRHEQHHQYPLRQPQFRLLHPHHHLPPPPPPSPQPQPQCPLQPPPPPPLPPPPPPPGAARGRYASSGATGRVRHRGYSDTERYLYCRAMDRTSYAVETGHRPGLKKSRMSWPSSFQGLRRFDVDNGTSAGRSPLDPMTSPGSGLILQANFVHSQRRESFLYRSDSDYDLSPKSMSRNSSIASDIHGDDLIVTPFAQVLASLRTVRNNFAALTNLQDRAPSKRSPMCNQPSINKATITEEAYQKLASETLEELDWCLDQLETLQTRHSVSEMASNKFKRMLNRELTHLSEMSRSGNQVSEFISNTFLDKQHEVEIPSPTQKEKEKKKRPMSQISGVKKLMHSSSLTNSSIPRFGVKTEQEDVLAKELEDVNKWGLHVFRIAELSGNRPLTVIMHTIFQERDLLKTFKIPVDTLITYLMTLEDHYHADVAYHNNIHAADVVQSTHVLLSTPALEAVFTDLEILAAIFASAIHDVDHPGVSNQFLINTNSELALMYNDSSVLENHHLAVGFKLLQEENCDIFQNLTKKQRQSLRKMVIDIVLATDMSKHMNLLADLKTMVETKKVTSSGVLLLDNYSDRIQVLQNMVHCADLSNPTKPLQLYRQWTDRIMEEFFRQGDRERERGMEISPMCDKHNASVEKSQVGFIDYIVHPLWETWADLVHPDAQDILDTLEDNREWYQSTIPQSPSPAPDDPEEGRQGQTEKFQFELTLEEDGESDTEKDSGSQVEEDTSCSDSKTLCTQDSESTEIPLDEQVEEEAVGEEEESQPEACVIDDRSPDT

## CNc1cc(Nc2cccn(-c3ccccn3)c2=O)nc2c(C(=O)N[C@@H]3CC[C@H]3OC)cnn12 [Compound 1, N-((1R,2R)-2-methoxycyclobutyl)-7-(methylamino)-5-((2-oxo-2H-[1,2′-bipyridin]-3-yl)amino)pyrazolo[1,5-a]pyrimidine-3-carboxamide]
5 mg, 3/8
  subjects with TEAEs: 38%
10 mg, 4/7
  subjects with TEAEs: 57%
30 mg, 4/6
  subjects with TEAEs: 67%
30 mg, led to discontinuation of treatment
  severe adverse events: one severe (Grade 3) adverse event of neutropenia
5, 10 or 30 mg daily, 28 days
  deaths or serious AEs: no deaths or serious AEs
  overall safety and tolerability: generally safe and well tolerated
All doses
  acneiform dermatitis, papular rash, aphthous ulcer: no events of acneiform dermatitis, papular rash, or aphthous ulcer
  vital signs, physical exam, ECG: no clinically significant changes in vital signs, physical exam, or ECG
[1]
  inhibition for 85 targets of the 87 target panel: <50% inhibition for 85
  inhibition of LCK: LCK (54%) and the adenosine
  inhibition of the adenosine transporter: transporter (53%)
[2]; multiple-dose cohorts
  deaths, serious or severe AEs, AEs leading to discontinuation from the study: no deaths, serious or severe AEs, or AEs leading to discontinuation from the study
[2]; single-dose cohorts
  deaths, serious or severe AEs, AEs leading to discontinuation: no deaths, serious or severe AEs, or AEs leading to discontinuation
clinical
  Tmax: 3 to 6 h
  half-life: 17 to 37 h
[3]
  disease activity in rat AIA model: suppressed disease activity in a dose-related manner
PDE4D
  IC50: > 10 µM
[4]
  AUC % extrapolated: 9.9-30.9%
  fraction of the dose excreted in urine (FE %): 0.37-1.89 % of dose
hepatocytes
  Hep Clpred: 11 mL/min/kg
[5]; 2 mg QD (n = 50)
  Achieving PASI 75 at Week 12, number of patients: 9 Number of patients
[5]; 2 mg QD versus placebo
  PASI 75 at Week 12, proportion difference: 12.3
[5]; 5 mg QD (n = 52)
  Achieving PASI 75 at Week 12, number of patients: 23 Number of patients
[5]; 5 mg QD versus placebo
  PASI 75 at Week 12, proportion difference: 38.5
[5]; 15 mg QD (n = 53)
  Achieving PASI 75 at Week 12, number of patients: 36 Number of patients
[5]; 15 mg QD versus placebo
  PASI 75 at Week 12, proportion difference: 61.9
[5]; 30 mg QD (n = 52)
  Achieving PASI 75 at Week 12, number of patients: 35 Number of patients
[5]; 30 mg QD versus placebo
  PASI 75 at Week 12, proportion difference: 61.5
[5]; 30 mg QD, week 12
  patients who achieved clear skin: 33%
[5]; FIG. 15
  fractions of patients achieving PGA 1 and PGA 0 at Week 12: both increased with increasing dose of Compound 1
[5]; in vivo
  primary endpoint (PASI 75 response at week 12): achieved with Compound 1 at doses ≥5 mg
FaSSIF/FeSSIF solubility; FaSSIF, read-out: FaSSIF solubility
  solubility: 13 µg/mL (≈ 28.2 µM)
FaSSIF/FeSSIF solubility; FeSSIF, read-out: FeSSIF solubility
  solubility: 70 µg/mL (≈ 152 µM)
[6]
  absorption: good absorption across species
[7]
  serious adverse events (SAEs) or deaths: No serious adverse events (SAEs) or deaths were observed
[8]
  overall safety and tolerability: generally safe and well tolerated
[9]; 1 mg/kg, Rat, 1 mpk IV dose, read-out: Clp, obs
  clearance: 26 mL/min/kg
[9]; 1 mg/kg, Rat, 1 mpk IV dose, read-out: Vss
  Vd: 1.6 L/kg
[9]; 10 mg/kg, Rat, PO 10 mpk
  Tmax: 1.7 h
  bioavailability: 63%
[9]; rat
  half-life: 1.2 h
